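Where inhibition never reached the appropriate level, the endpoint shown equals the highest concentration tested. Otherwise, values were interpolated linearly from a five-concentration, 48-hour dose response in 96-well plates. GI50 marks 50% less growth. TGI is the concentration that stops growth completely.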
How the values were obtained:
Test in all cases: DTP human tumour cell line panel, 48 h; in the data active = GI50 below about 0.43 µM; inactive = the rest
[1] = test system: NCI-H23 lung
[2] = test system: M14 melanoma
[3] = test system: OVCAR-5 ovarian
[4] = test system: SN12C renal
[5] = test system: KM12 colon
[6] = test system: T-47D breast
[7] = test system: NCI/ADR-RES ovarian
[8] = test system: HT29 colon
[9] = test system: DU-145 prostate
[10] = test system: NCI-H460 lung
[11] = test system: UACC-62 melanoma
[12] = test system: OVCAR-8 ovarian
[13] = test system: SK-OV-3 ovarian
[14] = test system: HCC-2998 colon
[15] = test system: A498 renal
[16] = test system: MDA-N
[17] = test system: SF-295 CNS
[18] = test system: ACHN renal
[19] = test system: PC-3 prostate
[20] = test system: A549 NSCLC
[21] = test system: NCI-H522 lung
[22] = test system: MDA-MB-231 breast
[23] = test system: RPMI-8226 leukemia
[24] = test system: UO-31 renal
[25] = test system: SK-MEL-28 melanoma
[26] = test system: CAKI-1 renal
[27] = test system: HCT-116 colon
[28] = test system: NCI-H226 lung
[29] = test system: HOP-92 NSCLC
[30] = test system: K-562 leukemia
[31] = test system: MDA-MB-435
[32] = test system: 786-0 renal
[33] = test system: SK-MEL-2 melanoma
[34] = test system: CCRF-CEM leukemia
[35] = test system: SF-539 CNS
[36] = test system: BT-549 breast
[37] = test system: HS 578T breast
[38] = test system: UACC-257 melanoma
[39] = test system: SW-620 colon
[40] = test system: SNB-75 CNS
[41] = test system: MOLT-4 leukemia
[42] = test system: COLO 205 colon
[43] = test system: HL-60(TB) leukemia
[44] = test system: SF-268 CNS
[45] = test system: TK-10 renal
[46] = test system: HOP-62 NSCLC
[47] = test system: EKVX NSCLC
[48] = test system: SNB-19 CNS
[49] = test system: SK-MEL-5 melanoma
[50] = test system: U251 CNS
[51] = test system: OVCAR-4 ovarian
[52] = test system: IGROV1 ovarian
[53] = test system: HCT-15 colon
[54] = test system: SR leukemia
[55] = test system: RXF 393 renal
[56] = test system: OVCAR-3 ovarian
[57] = test system: MCF7 breast
[58] = test system: MALME-3M melanoma
[59] = test system: LOX IMVI melanoma

COC(=O)[C@H]1C=C[C@H](OC2OC(COC(C)=O)C(OC(C)=O)C(OC(C)=O)C2OC(C)=O)n2c(=O)n(-c3ccccc3)c(=O)n21 (stereo not given in full)
14.7 µM: TGI [32]
3.73 µM: TGI [55]
21.1 µM: TGI [9] | TGI [46]
9.64 µM: TGI [2]
7.37 µM: TGI [47]
26.4 µM: TGI [12]
31.3 µM: TGI [48]
16.6 µM: TGI [31]
32.6 µM: TGI [13]
4.96 µM: TGI [24]
8.33 µM: TGI [54]
> 47.1 µM: TGI [44]
6.16 µM: TGI [41]
17.6 µM: TGI [15]
61.8 µM: TGI [7]
3.01 µM: TGI [11]
5.04 µM: TGI [23]
10.5 µM: TGI [10]
> 28.1 µM: TGI [6]
2.4 µM: TGI [26]
18.4 µM: TGI [52]
9.59 µM: TGI [37]
15.4 µM: TGI [45]
22.6 µM: TGI [19]
3.55 µM: TGI [53]
4.55 µM: TGI [14]
5.68 µM: TGI [39]
4.44 µM: TGI [35]
24.5 µM: TGI [22]
3.08 µM: TGI [18]
20.5 µM: TGI [28]
8.58 µM: TGI [8]
32.9 µM: TGI [51]
11.3 µM: TGI [56]
24.9 µM: TGI [40]
20.6 µM: TGI [38]
26.9 µM: TGI [17]
27.9 µM: TGI [50]
> 100 µM: TGI [43]
0.504 µM: TGI [21]
30.6 µM: TGI [33]
4.91 µM: TGI [30]
8.63 µM: TGI [25]
15.6 µM: TGI [1]
18.5 µM: TGI [16]
3.9 µM: TGI [29]
inactive: GI50 [51] 4.14 µM
35.4 µM: TGI [20]
25.7 µM: TGI [3]
25.1 µM: TGI [5]
> 22.4 µM: TGI [49]
16.3 µM: TGI [34]
9.14 µM: TGI [36]
3.6 µM: TGI [42]
> 30.5 µM: TGI [27]
19.9 µM: TGI [4]

CCN(CC(=O)O)CC(=O)O
> 100 µM: TGI [1] | TGI [2] | TGI [3] | TGI [4] | TGI [5] | TGI [6] | TGI [7] | TGI [8] | TGI [9] | TGI [10] | TGI [11] | TGI [12] | TGI [13] | TGI [14] | TGI [15] | TGI [16] | TGI [17] | TGI [18] | TGI [19] | TGI [57] | TGI [20] | TGI [21] | TGI [22] | TGI [58] | TGI [23] | TGI [24] | TGI [25] | TGI [26] | TGI [27] | TGI [28] | TGI [29] | TGI [30] | TGI [31] | TGI [32] | TGI [33] | TGI [59] | TGI [34] | TGI [35] | TGI [36] | TGI [37] | TGI [38] | TGI [39] | TGI [40] | TGI [41] | TGI [42] | TGI [44] | TGI [45] | TGI [46] | TGI [47] | TGI [48] | TGI [49] | TGI [50] | TGI [51] | TGI [52] | TGI [53] | TGI [55] | TGI [56]

CCc1cc(=O)n(/C(C)=C/c2ccccc2)n1C
> 100 µM: TGI [1] | TGI [2] | TGI [3] | TGI [4] | TGI [5] | TGI [6] | TGI [7] | TGI [8] | TGI [9] | TGI [10] | TGI [11] | TGI [12] | TGI [13] | TGI [14] | TGI [16] | TGI [17] | TGI [18] | TGI [19] | TGI [57] | TGI [20] | TGI [22] | TGI [23] | TGI [24] | TGI [25] | TGI [26] | TGI [27] | TGI [28] | TGI [29] | TGI [30] | TGI [31] | TGI [33] | TGI [59] | TGI [34] | TGI [35] | TGI [36] | TGI [37] | TGI [38] | TGI [39] | TGI [40] | TGI [41] | TGI [42] | TGI [44] | TGI [45] | TGI [46] | TGI [47] | TGI [48] | TGI [49] | TGI [50] | TGI [51] | TGI [52] | TGI [55] | TGI [56]

Brc1ccc2c(c1)-c1nc3c(cc1CC2)CCc1ccc(Br)cc1-3
> 100 µM: TGI [1] | TGI [2] | TGI [3] | TGI [4] | TGI [5] | TGI [6] | TGI [7] | TGI [10] | TGI [12] | TGI [13] | TGI [14] | TGI [15] | TGI [16] | TGI [17] | TGI [18] | TGI [19] | TGI [57] | TGI [20] | TGI [21] | TGI [22] | TGI [58] | TGI [23] | TGI [24] | TGI [25] | TGI [26] | TGI [27] | TGI [28] | TGI [29] | TGI [30] | TGI [31] | TGI [32] | TGI [33] | TGI [59] | TGI [34] | TGI [36] | TGI [38] | TGI [39] | TGI [40] | TGI [41] | TGI [42] | TGI [44] | TGI [45] | TGI [46] | TGI [47] | TGI [48] | TGI [49] | TGI [50] | TGI [51] | TGI [52] | TGI [53] | TGI [55] | TGI [56]

COC(=O)c1cc(C(=O)OC)cc(-c2ccc3c(c2)-c2nc4c(c(-c5ccc(OC)cc5)c2CC3)CCc2ccc(-c3cc(C(=O)OC)cc(C(=O)OC)c3)cc2-4)c1
31.3 µM: TGI [47]
> 100 µM: TGI [1] | TGI [2] | TGI [4] | TGI [5] | TGI [6] | TGI [7] | TGI [9] | TGI [10] | TGI [11] | TGI [13] | TGI [14] | TGI [15] | TGI [16] | TGI [17] | TGI [18] | TGI [19] | TGI [57] | TGI [20] | TGI [21] | TGI [22] | TGI [58] | TGI [23] | TGI [24] | TGI [25] | TGI [26] | TGI [27] | TGI [28] | TGI [29] | TGI [31] | TGI [32] | TGI [33] | TGI [36] | TGI [38] | TGI [40] | TGI [42] | TGI [44] | TGI [45] | TGI [46] | TGI [48] | TGI [49] | TGI [50] | TGI [51] | TGI [53] | TGI [56]
1.06 µM: TGI [30]
31.8 µM: TGI [3]

Cc1ccc(-n2cc(-c3ccc(Cl)cc3)c3c2N=CN2NC(c4ccco4)=NC32)cc1 (stereo not given)
7.16 µM: TGI [37]
9.88 µM: TGI [29]
16 µM: TGI [13]
72.4 µM: TGI [1]
27.3 µM: TGI [26]
72.3 µM: TGI [52]
24.5 µM: TGI [18]
29.2 µM: TGI [15]
30.7 µM: TGI [55]
26 µM: TGI [22]
27.5 µM: TGI [12] | TGI [33]
99.2 µM: TGI [36]
68.6 µM: TGI [28]
73.8 µM: TGI [56]
83.6 µM: TGI [44]
11.6 µM: TGI [54]
31.5 µM: TGI [11]
20.8 µM: TGI [50]
42.6 µM: TGI [48]
47.5 µM: TGI [24]
28.7 µM: TGI [45]
18.1 µM: TGI [40]
4.03 µM: TGI [51]
17.4 µM: TGI [32]
24 µM: TGI [46]
27.8 µM: TGI [17]
31.8 µM: TGI [27]
86.6 µM: TGI [7]
90 µM: TGI [21]
51.3 µM: TGI [35]
> 100 µM: TGI [2] | TGI [3] | TGI [4] | TGI [8] | TGI [9] | TGI [10] | TGI [14] | TGI [16] | TGI [19] | TGI [57] | TGI [20] | TGI [58] | TGI [25] | TGI [30] | TGI [31] | TGI [59] | TGI [34] | TGI [38] | TGI [39] | TGI [42] | TGI [43] | TGI [47] | TGI [49] | TGI [53]

Cc1cc2c(cc1Cl)SC(NNc1cnc3ccccc3n1)=NS2(=O)=O
87 µM: TGI [35]
77.2 µM: TGI [29]
65.7 µM: TGI [15]
63.5 µM: TGI [41]
> 100 µM: TGI [1] | TGI [2] | TGI [3] | TGI [4] | TGI [5] | TGI [6] | TGI [7] | TGI [8] | TGI [9] | TGI [10] | TGI [11] | TGI [12] | TGI [13] | TGI [14] | TGI [16] | TGI [17] | TGI [18] | TGI [19] | TGI [20] | TGI [21] | TGI [22] | TGI [58] | TGI [24] | TGI [25] | TGI [26] | TGI [27] | TGI [28] | TGI [30] | TGI [31] | TGI [32] | TGI [59] | TGI [34] | TGI [36] | TGI [37] | TGI [38] | TGI [39] | TGI [40] | TGI [42] | TGI [43] | TGI [44] | TGI [45] | TGI [46] | TGI [47] | TGI [48] | TGI [49] | TGI [50] | TGI [51] | TGI [52] | TGI [53] | TGI [55] | TGI [56]

Source: PubChem BioAssay (NCI)
